Test results reported in patent EP3183253B1, “SALT OF (R)-3-(4-(7H-PYRROLO [2,3-D]PYRIMIDIN-4-YL)-LH-PYRAZOL-L-YL)-3-CYCLOPENTYLPROPANENITRILE WITH BENZENESULFONIC ACID” (ratiopharm GmbH, priority 2014, dated 2016).

Assays:
Format in all cases: physicochemical
[1] = Storage stability: solid-state stability by XRPD analysis
Description: The sample was analyzed on a D8 Advance X-ray powder diffractometer (Bruker-AXS, Karlsruhe, Germany). The sample holder was rotated in a plane parallel to its surface at 20 rpm during the measurement. The raw data were analyzed with the program EVA (Bruker-AXS, Germany). The samples were layered onto a silicon specimen holder.
(§1) Samples were stored in closed and open containers at 25°C/60% rh and at 40°C/75% rh and analyzed after 4, 8 and 12 weeks.
The solid-state stability was investigated by XRPD analysis for 25°C/60% rh. The results of evaluation are summarized.

[2] = Storage stability: chemical purity by HPLC/UV; settings: for Chemical purity ([area-%] at λ=230 nm): 40°C/75% rh
Description: as §1
The results of determination of the chemical purity during storage at 40°C/75% rh are summarized. […] Therefore, the analysis of samples, which were stored at 25°C/60% rh, was omitted.

[3] = pH-dependency of solubility at 37°C; settings: for solubility: 37°C
Source text: The intestinal tract obeys different pH ranges, which vary from pH 1 to 2 of the empty stomach, pH 3-5 for stomach filled with chyme, to pH 5-7.5 of the colon.

[4] = Dynamic vapor sorption experiment (hygroscopicity); settings: 25°C, reducing humidity to 0% and increasing to 40%
Description: Vapour sorption experiments were performed in the instrument SPSx-1µ (Projekt Messtechnik, Ulm, Germany) at temperature of 25°C and the humidity cycles as shown below.
A dynamic vapor sorption experiment was performed with Ruxolitinib besylate. At a constant temperature of 25°C, the substance was exposed to two cycles of varying relative humidity (rh) (40% → 0% →95% (75% r.h. kept constant for 48h) → 0% →40%). Figure 3a presents the relative weight change as a function of time and relative humidity and in […] changes are illustrated as a function of humidity.

With `N#CC[C@H](C1CCCC1)n1cc(-c2ncnc3[nH]ccc23)cn1` [Ruxolitinib besylate, Ruxolitinib benzenesulfonate] the “stability upon storage (in words)” value ([1]; 25°C and 60% relative humidity (RH), up to at least 12 weeks) was “stable”, the “solid-state stability by XRPD (in words)” value ([1]; 25°C/60% rh, throughout the observation period) was “remained unchanged” and the “chemical stability during storage (in words)” value ([2]; 40°C/75% rh, 4, 8 and 12 weeks) was “remained chemically stable”. The “Chemical purity ([area-%] at λ=230 nm)” value ([2]; closed container, 4 weeks) was 98.14% area-%, the “Chemical purity ([area-%] at λ=230 nm)” value ([2]; closed container, 8 weeks) was 98.27% area-% and the “Chemical purity ([area-%] at λ=230 nm)” value ([2]; closed container, 12 weeks) was 98.06% area-%. For the same compound, the “Chemical purity ([area-%] at λ=230 nm)” value ([2]; closed container, t = 00 (= initial)) was 98.16 area-%, the “Chemical purity ([area-%] at λ=230 nm)” value ([2]; open container, 4 weeks) was 98.16% area-% and the “Chemical purity ([area-%] at λ=230 nm)” value ([2]; open container, 8 weeks) was 98.21% area-%. The “Chemical purity ([area-%] at λ=230 nm)” value ([2]; open container, 12 weeks) was 98.22% area-%, the “Chemical purity ([area-%] at λ=230 nm)” value ([2]; open container, t = 00 (= initial)) was 98.16 area-% and the solubility at 0.5 h ([3]; 0.1m hcl, pH 1.2, 37°C, 0.1M HCl pH1.2, 0.5 h) was 9600 µg/mL. For the same compound, the solubility at 1 h ([3]; 0.1m hcl, pH 1.2, 37°C, 0.1M HCl pH1.2, 1 h) was 9600 µg/mL, the solubility at 24 h ([3]; 0.1m hcl, pH 1.2, 37°C, 0.1M HCl pH1.2, 24 h) was 9300 µg/mL and the solubility at 1 h ([3]; 20mm naoac, pH 4.5, 37°C, 20mM (NaOAc / NaAc) -pH 4.5, 1 h) was 7100 µg/mL. It also gave a solubility ([3]; 20mM (NaOAc / NaAc) -pH 4.5, 0.5 h) of 6700 µg/mL, a solubility ([3]; 20mM (NaOAc / NaAc) -pH 4.5, 24 h) of 6100 µg/mL and a solubility ([3]; 50mM KH2PO4 pH 6.8, 24 h) of 5800 µg/mL. For the same compound, the solubility at 0.5 h ([3]; 50mm kh2po4, pH 6.8, 37°C, 50mM KH2PO4 pH 6.8, 0.5 h) was 6800 µg/mL, the solubility at 1 h ([3]; 50mm kh2po4, pH 6.8, 37°C, 50mM KH2PO4 pH 6.8, 1 h) was 7000 µg/mL and the “weight after desorption and re-sorption (in words)” value [4] was “resulted in the initial starting weight”.
